Where no end group is shown, it is not given here.
How the values were obtained:
Assay type in all cases: cell-based
[1] = test system: tested bacterial strains (Gram-positive and Gram-negative); conditions: for antimicrobial activity / spectrum in words: tested Gram-positive and Gram-negative strains
Protocol: (§1) The following strains have been used in this study: Escherichia coli ATCC 25922, Staphylococcus aureus ATCC […], Vibrio anguillarum ATCC 43305, Pseudomonas aeruginosa ATCC 27853, Acinetobacter baumannii ATCC 19606, Bacillus subtilis ATCC 6051. Vibrio anguillarum ATCC 43305 was cultivated in tryptic soy broth (TSB, Becton Dickinson, Milan, Italy) implemented with 2% NaCl, all the other strains were grown in Müller-Hinton broth (MH, Becton Dickinson, Milan, Italy).
(§2) The minimum inhibiting concentration (MIC) of each myticalin synthetic peptide was calculated using the broth microdilution method. Briefly, twofold serial dilutions of each peptide were prepared in appropriate growth medium and aliquoted in the wells of a round-bottom microtiter plates (Sarstedt, Nümbrecht, Germany). An overnight culture of each bacterial strain was diluted 1:50 in fresh growth medium and grown to an OD600nm ≈ 0.3. Each well was then inoculated with a standardized inoculum in order to achieve, in a final total volume of 100 μL, a final test concentration of about 5 × 10^5 CFU/mL. The plate was then sealed to minimize evaporation and incubated at 37 °C for 24 h. The day after, the MIC was identified as the lowest concentration of the peptide that impaired any visible bacterial growth.

[2] = test system: Staphylococcus aureus ATCC 25923; experiment: MIC, broth microdilution
Protocol: as §1, §2

[3] = test system: Pseudomonas aeruginosa ATCC 27853; experiment: MIC, broth microdilution
Protocol: as §1, §2

[4] = test system: Bacillus subtilis ATCC 6051; experiment: MIC, broth microdilution
Protocol: as §1, §2

[5] = test system: Vibrio anguillarum ATCC 43305; experiment: MIC, broth microdilution
Protocol: as §1, §2

[6] = test system: Escherichia coli ATCC 25922; experiment: MIC, broth microdilution
Protocol: as §1, §2

[7] = test system: Acinetobacter baumannii ATCC 19606; experiment: MIC, broth microdilution
Protocol: as §1, §2

[8] = Staphylococcus aureus ATCC 25923, Müller-Hinton broth, about 5 × 10^5 CFU/mL, 37 °C, 24 h, mode of four independent experiments
[9] = Pseudomonas aeruginosa ATCC 27853, Müller-Hinton broth, about 5 × 10^5 CFU/mL, 37 °C, 24 h, mode of four independent experiments
[10] = Bacillus subtilis ATCC 6051, Müller-Hinton broth, about 5 × 10^5 CFU/mL, 37 °C, 24 h, mode of four independent experiments
[11] = Vibrio anguillarum ATCC 43305, tryptic soy broth with 2% NaCl, about 5 × 10^5 CFU/mL, 37 °C, 24 h, mode of four independent experiments
[12] = Escherichia coli ATCC 25922, Müller-Hinton broth, about 5 × 10^5 CFU/mL, 37 °C, 24 h, mode of four independent experiments
[13] = Acinetobacter baumannii ATCC 19606, Müller-Hinton broth, about 5 × 10^5 CFU/mL, 37 °C, 24 h, mode of four independent experiments

Substance	antimicrobial activity / spectrum in words [1]	Minimal inhibitory concentration (MIC) ([2]; ATCC 25923, 24 h)	Minimal inhibitory concentration (MIC) ([3]; ATCC 27853, 24 h)	Minimal inhibitory concentration (MIC) ([4]; ATCC 6051, 24 h)	Minimal inhibitory concentration (MIC) ([5]; ATCC 43305, 24 h)	Minimal inhibitory concentration (MIC) ([6]; ATCC 25922, 24 h)	Minimal inhibitory concentration (MIC) ([7]; ATCC 19606, 24 h)	MIC toward all the tested bacterial strains ([1]; 24 h)	Minimal inhibitory concentration (MIC) [2, 8]	Minimal inhibitory concentration (MIC) [3, 9]	Minimal inhibitory concentration (MIC) [4, 10]	Minimal inhibitory concentration (MIC) [5, 11]	Minimal inhibitory concentration (MIC) [6, 12]	Minimal inhibitory concentration (MIC) [7, 13]
LRWTPTPSYPRYPTRSRGSRWSR-NH2 [Myticalin B1]	moderate antimicrobial activity	>32 µM	>32 µM	32 µM	>32 µM	8 to 16 µM	8 µM							
RRRRRFRRVIRRIRLPKYLTINTE [Myticalin C6]	moderate antimicrobial activity	8 µM	32 µM	32 µM	>32 µM	4 µM	2 µM							
RRRRRYRYWRRGLTIQGRPKSLPLNTGD [Myticalin C9]	broad spectrum of activity	2 µM	8 µM	4 µM	>32 µM	4 µM	2 µM							
WGRRWRIRIPRLPRPWPPRPKWPRSATINTDQ [Myticalin D2]	broad spectrum of activity	16 to 32 µM	4 µM	2 µM	>32 µM	4 µM	2 µM							
WPRFPKPRKPTYPGPTYPGPTWPRPTWRRSATIDTEH [Myticalin D5]		>32 µM	>32 µM	>32 µM	>32 µM	>32 µM	>32 µM	> 32 µM						
YSWPRMPRIPRLPRYPRYPRYPRWPRHPTIYA-NH2 [Myticalin A8]	broad spectrum of activity								16 µM	8 µM	4 µM	>32 µM	1 µM	1 µM
YSWPRMPRIPRLPRYPRYPRYPRWPRWPRQPTIYA-NH2 [Myticalin A5]									8 to 16 µM	4 to 8 µM	4 µM	>32 µM	2 µM	4 µM

Source: publication PMC5577615, “Myticalins: A Novel Multigenic Family of Linear, Cationic Antimicrobial Peptides from Marine Mussels (Mytilus spp.)” (Marine Drugs, 2017)
